Laboratory results taken from ChEMBL document CHEMBL1144327, “Carbonic anhydrase inhibitors. Inhibition of the membrane-bound human and bovine isozymes IV with sulfonamides” (Bioorg Med Chem Lett, 2005).
pKi: −log10 of the molar value.

Tests used:
Carbonic anhydrase 4 [1] = molecular target: Carbonic anhydrase 4 (Homo sapiens, UniProt P22748)
Description: Inhibitory activity against human carbonic anhydrase IV (hCAIV)

Carbonic anhydrase 4 [2] = molecular target: T1, Carbonic anhydrase 4 (Bos taurus, UniProt Q95323)
T1 sequence (Q95323 whole entry): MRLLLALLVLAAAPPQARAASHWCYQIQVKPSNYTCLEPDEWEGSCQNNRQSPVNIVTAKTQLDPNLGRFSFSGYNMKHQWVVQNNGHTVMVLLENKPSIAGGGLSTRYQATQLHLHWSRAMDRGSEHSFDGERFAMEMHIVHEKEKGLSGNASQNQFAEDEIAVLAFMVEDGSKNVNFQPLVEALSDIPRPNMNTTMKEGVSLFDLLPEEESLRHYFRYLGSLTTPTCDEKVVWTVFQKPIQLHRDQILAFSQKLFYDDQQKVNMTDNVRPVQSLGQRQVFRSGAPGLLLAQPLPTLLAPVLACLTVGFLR
Description: Inhibitory activity against bovine carbonic anhydrase IV (bCAIV)

Carbonic anhydrase 4 (Homo sapiens, UniProt P22748), sequence (P22748 whole entry): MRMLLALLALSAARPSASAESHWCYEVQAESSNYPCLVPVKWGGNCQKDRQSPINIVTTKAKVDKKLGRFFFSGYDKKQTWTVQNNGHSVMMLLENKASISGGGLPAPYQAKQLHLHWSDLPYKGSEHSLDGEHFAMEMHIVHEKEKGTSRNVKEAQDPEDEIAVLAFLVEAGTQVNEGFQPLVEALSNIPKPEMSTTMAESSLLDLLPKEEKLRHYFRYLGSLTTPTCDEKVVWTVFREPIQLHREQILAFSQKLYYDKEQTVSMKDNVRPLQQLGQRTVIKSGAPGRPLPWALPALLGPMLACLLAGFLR

## Nc1ccc(S(N)(=O)=O)cc1Cl
Carbonic anhydrase 4 [1]
  pKi: 6.35

## NNc1ccc(S(N)(=O)=O)cc1
Carbonic anhydrase 4 [1]
  pKi: 5.11

## Nc1ccc(S(N)(=O)=O)cc1F
Carbonic anhydrase 4 [1]
  pKi: 6.04

## CC1(C)O[C@@H]2[C@@H](CO[C@@]3(COS(N)(=O)=O)OC(C)(C)O[C@@H]23)O1 [TOPIRAMATE]
Carbonic anhydrase 4 [1]
  pKi: 5.31

## Nc1ccc(S(=O)(=O)NCc2ccc(S(N)(=O)=O)cc2)cc1
Carbonic anhydrase 4 [2]
  pKi: 7.30
Carbonic anhydrase 4 [1]
  pKi: 7.08

## Nc1ccc(S(N)(=O)=O)cc1I
Carbonic anhydrase 4 [1]
  pKi: 6.04

## NCc1ccc(S(N)(=O)=O)cc1 [MAFENIDE]
Carbonic anhydrase 4 [1]
  pKi: 5.07

## Nc1ccc(S(N)(=O)=O)cc1 [SULFANILAMIDE]
Carbonic anhydrase 4 [1]
  pKi: 5.01

## Nc1ccc(S(N)(=O)=O)cc1Br
Carbonic anhydrase 4 [1]
  pKi: 7.02

## Nc1cccc(S(N)(=O)=O)c1
Carbonic anhydrase 4 [1]
  pKi: 5.11

## Nc1cc(C(F)(F)F)c(S(N)(=O)=O)cc1S(N)(=O)=O [2,4-DISULFAMYLTRIFLUOROMETHYLANILINE]
Carbonic anhydrase 4 [2]
  pKi: 6.62

## Cc1ccc(-c2cc(C(F)(F)F)nn2-c2ccc(S(N)(=O)=O)cc2)cc1 [CELECOXIB]
Carbonic anhydrase 4 [2]
  pKi: 6.54
Carbonic anhydrase 4 [1]
  pKi: 6.06
